According to patent publication US20250197359A1, “CANNABINOID RECEPTOR MODULATING COMPOUNDS” (The U.S.A., as Represented by the Secretary, Department of …, priority 2022, published 2025):
pIC50, pKi: −log10 of the molar value. Read-outs that look alike come from different tables or passages of the source.

Assays:
CB1 = CB1 (UniProt P21554); test: CB1 radioligand binding assay; parameters: species or system human; conditions: read-out: Ki (CB1)
In short: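 Radioligand binding to human CB1 stably expressed in CHO cells and to mouse brain membrane CB1 gave binding constants. For selected compounds, antagonism of CP55940-induced CB1 activation was measured in MPXNomad-CB1 HEK293 cells via cAMPNomad (cAMP) and ArresNomad (β-arrestin) fluorescent biosensors.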

iNOS = iNOS (Mus musculus, UniProt P29477); test: Inducible NOS biochemical assay; conditions: for % Response (Inducible NOS): Mouse, 10 μM, criteria ≥ ±50%, preliminary data
From the text: Biochemical assay results are presented as the percent inhibition of specific binding or activity (iNOS, CAMP, beta arrestin).

Brain/CB1 = target: T1, Brain/CB1 (Mus musculus, UniProt P47746); test: Functional GTPγS binding, Brain/CB1; format: biochemical
T1 construct: from tissue; host or cells: mouse brain membranes
T1 sequence (P47746 whole entry): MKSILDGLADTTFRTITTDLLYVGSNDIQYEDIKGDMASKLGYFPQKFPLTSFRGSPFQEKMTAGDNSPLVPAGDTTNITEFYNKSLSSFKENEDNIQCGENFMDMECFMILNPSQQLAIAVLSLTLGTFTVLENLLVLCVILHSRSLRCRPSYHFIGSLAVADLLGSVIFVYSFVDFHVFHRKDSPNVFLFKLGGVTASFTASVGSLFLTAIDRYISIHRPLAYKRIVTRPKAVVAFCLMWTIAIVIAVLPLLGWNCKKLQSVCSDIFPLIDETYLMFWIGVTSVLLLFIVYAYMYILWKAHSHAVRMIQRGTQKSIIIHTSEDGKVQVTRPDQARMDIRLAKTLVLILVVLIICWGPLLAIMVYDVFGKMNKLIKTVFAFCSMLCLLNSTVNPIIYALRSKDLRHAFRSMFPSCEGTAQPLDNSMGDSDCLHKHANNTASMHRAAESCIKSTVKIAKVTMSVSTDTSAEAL

[1] = Caco-2 permeability (A-B and B-A); format: in vitro ADME; conditions: human; for efflux ratio: Caco-2, quotient of Papp(BA) to Papp(AB)
[2] = Metabolic stability in human liver microsomes; format: in vitro ADME
[3] = Metabolic stability in mouse liver microsomes; format: in vitro ADME
[4] = Caco-2, mean, read-out: Papp (AB), 10^−6 cm/s, Mean
[5] = Caco-2, mean, read-out: Papp (BA), 10^−6 cm/s, Mean
[6] = Caco-2, replicate 1, read-out: Papp (AB), 10^−6 cm/s, 1
[7] = Caco-2, replicate 1, read-out: Papp (BA), 10^−6 cm/s, 1
[8] = Caco-2, replicate 2, read-out: Papp (AB), 10^−6 cm/s, 2
[9] = Caco-2, replicate 2, read-out: Papp (BA), 10^−6 cm/s, 2

| SMILES | pKi (CB1) | iNOS inhibition % Response (iNOS) | pIC50 (Brain/CB1) | further results |
| --- | --- | --- | --- | --- |
| C[Se]/C(N)=N\C(=N\S(=O)(=O)c1ccc(C(F)(F)F)cc1)N1CCC(c2ccccc2)C(c2ccc(Cl)cc2)=N1 (centres unmarked) [Compound 12b, methyl (Z)—N′—((Z)-(3-(4-chlorophenyl)-4-phenyl-5,6-dihydropyridazin-1 (4H)-yl)(((4-(trifluoromethyl)phenyl)sulfonyl)imino)methyl)carbamimidoselenoate] | 6.94 | 64% |  |  |
| N/C(=N/C(=N/S(=O)(=O)c1ccc(C(F)(F)F)cc1)N1CCC(c2ccccc2)C(c2ccc(Cl)cc2)=N1)c1ccccc1Cl (centres unmarked) [Compound 10s, (Z)—N—((E)-amino (2-chlorophenyl)methylene)-3-(4-chlorophenyl)-4-phenyl-N′-((4-(trifluoromethyl)phenyl)sulfonyl)-5,6-dihydropyridazine-1 (4H)-carboximidamide] | 7.69 | 24% | 7.72 |  |
| C[Se]/C(N)=N\C(=N\S(=O)(=O)c1ccc(C(F)(F)F)cc1)N1CCC(c2ccccc2)C(c2ccc(Cl)cc2)=N1 (centres unmarked) [drawing 18] |  |  |  | % Response (Inducible NOS) (iNOS): 64% |
| CS/C(N)=N\C(=N\S(=O)(=O)c1ccc(C(F)(F)F)cc1)N1CCC(c2ccccc2)C(c2ccc(Cl)cc2)=N1 (centres unmarked) [drawing 17] |  |  |  | % Response (Inducible NOS) (iNOS): 56% |
| CC(C)(C)/C(N)=N/C(=N/S(=O)(=O)c1ccc(C(F)(F)F)cc1)N1CCC(c2ccccc2)C(c2ccc(Cl)cc2)=N1 (centres unmarked) [Compound 10o, (Z)—N—((Z)-1-amino-2,2-dimethylpropylidene)-3-(4-chlorophenyl)-4-phenyl-N′-((4-(trifluoromethyl)phenyl)sulfonyl)-5,6-dihydropyridazine-1 (4H)-carboximidamide] | 8.00 | 66% | 7.74 | Papp A→B [1, 4]: 2.2 ×10⁻⁶ cm/s; Papp B→A [1, 5]: 0.5 ×10⁻⁶ cm/s; Papp A→B [1, 6]: 1.9 ×10⁻⁶ cm/s; Papp B→A [1, 7]: 0.5 ×10⁻⁶ cm/s; Papp A→B [1, 8]: 2.4 ×10⁻⁶ cm/s; Papp B→A [1, 9]: 0.5 ×10⁻⁶ cm/s; efflux ratio [1]: 0.2; t1/2, min [2]: 1.07 h; microsomal CLint ([2]; human, liver microsomes): 26 µL/min/mg; half-life ([2]; human, liver microsomes, read-out: t1/2, min): 1.07 h; t1/2, min [3]: 1.23 h; microsomal CLint ([3]; mouse, liver microsomes): 23 µL/min/mg; half-life ([3]; mouse, liver microsomes, read-out: t1/2, min): 1.13 h |
| CC(C)C(N/C(=N/S(=O)(=O)c1ccc(C(F)(F)F)cc1)N1CCC(c2ccccc2)C(c2ccc(Cl)cc2)=N1)C(N)=O (single isomer, unassigned) [Compound 29b, (Z)-2-(3-(4-chlorophenyl)-4-phenyl-N′-((4-(trifluoromethyl)phenyl)sulfonyl)-1,4,5,6-tetrahydropyridazine-1-carboximidamido)-3-methylbutanamide] | 8.57 |  | 8.00 | Papp A→B [1, 4]: 0.9 ×10⁻⁶ cm/s; Papp B→A [1, 5]: 0.3 ×10⁻⁶ cm/s; Papp A→B [1, 6]: 0.9 ×10⁻⁶ cm/s; Papp B→A [1, 7]: 0.3 ×10⁻⁶ cm/s; Papp A→B [1, 8]: 1 ×10⁻⁶ cm/s; Papp B→A [1, 9]: 0.4 ×10⁻⁶ cm/s; efflux ratio [1]: 0.4; Clint [2]: 15 µL/min/mg; t1/2, min [2]: 1.91 h; Clint [3]: 883 µL/min/mg; t1/2, min [3]: 0.0317 h |
| CC(C)/C(N)=N\C(=N\S(=O)(=O)c1ccc(C(F)(F)F)cc1)N1CCC(c2ccccc2)C(c2ccc(Cl)cc2)=N1 (centres unmarked) [Compound 10m, (Z)—N—((E)-1-amino-2-methylpropylidene)-3-(4-chlorophenyl)-4-phenyl-N′-((4-(trifluoromethyl)phenyl)sulfonyl)-5,6-dihydropyridazine-1 (4H)-carboximidamide] | 7.64 | 55% | 6.82 |  |
| N/C(=N\C(=N\S(=O)(=O)c1ccc(C(F)(F)F)cc1)N1CCC(c2ccccc2)C(c2ccc(Cl)cc2)=N1)C1CC1 (centres unmarked) [Compound 10n, (Z)—N—((Z)-amino (cyclopropyl)methylene)-3-(4-chlorophenyl)-4-phenyl-N′-((4-(trifluoromethyl)phenyl)sulfonyl)-5,6-dihydropyridazine-1 (4H)-carboximidamide] | 7.36 | 55% | 6.68 |  |
| O=S(=O)(/N=C(/N=C1\CCCCN1)N1CCC(c2ccccc2)C(c2ccc(Cl)cc2)=N1)c1ccc(C(F)(F)F)cc1 (centres unmarked) [Compound 16, (Z)-3-(4-chlorophenyl)-4-phenyl-N—((E)-piperidin-2-ylidene)-N′-((4-(trifluoromethyl)phenyl)sulfonyl)-5,6-dihydropyridazine-1 (4H)-carboximidamide] | 7.59 | 51% | 6.98 |  |
| CCS/C(N)=N\C(=N/S(=O)(=O)c1ccc(C(F)(F)F)cc1)N1CCC(c2ccccc2)C(c2ccc(Cl)cc2)=N1 (centres unmarked) [Compound 11i, ethyl (Z)—N′—((E)-(3-(4-chlorophenyl)-4-phenyl-5,6-dihydropyridazin-1 (4H)-yl)(((4-(trifluoromethyl)phenyl)sulfonyl)imino)methyl)carbamimidothioate] | 7.00 | 66% | 6.19 |  |
| C/C(N)=N\C(=N\S(=O)(=O)c1ccc(Cl)cc1)N1CCC(c2ccccc2)C(c2ccc(Cl)cc2)=N1 (centres unmarked) [Compound 10a, (Z)—N—((E)-1-aminoethylidene)-3-(4-chlorophenyl)-N′-((4-chlorophenyl)sulfonyl)-4-phenyl-5,6-dihydropyridazine-1 (4H)-carboximidamide] | 7.12 | 39% | 6.86 |  |
| C/C(N)=N\C(=N\S(=O)(=O)c1ccc(OC(F)(F)F)cc1)N1CCC(c2ccccc2)C(c2ccc(Cl)cc2)=N1 (centres unmarked) [Compound 10d, (Z)—N—((E)-1-aminoethylidene)-3-(4-chlorophenyl)-4-phenyl-N′-((4-(trifluoromethoxy)phenyl)sulfonyl)-5,6-dihydropyridazine-1 (4H)-carboximidamide] | 7.25 | 55% | 6.98 |  |
| C/C(N)=N\C(=N\S(=O)(=O)c1ccc(C#N)cc1)N1CCC(c2ccccc2)C(c2ccc(Cl)cc2)=N1 (centres unmarked) [Compound 10e, (Z)—N—((E)-1-aminoethylidene)-3-(4-chlorophenyl)-N′-((4-cyanophenyl)sulfonyl)-4-phenyl-5,6-dihydropyridazine-1 (4H)-carboximidamide] | 7.11 | 43% | 6.47 |  |
| CS/C(N)=N\C(=N\S(=O)(=O)c1ccc(C(F)(F)F)cc1)N1CCC(c2ccccc2)C(c2ccc(Cl)cc2)=N1 (centres unmarked) [Compound 11b, methyl (Z)—N′—((Z)-(3-(4-chlorophenyl)-4-phenyl-5,6-dihydropyridazin-1 (4H)-yl)(((4-(trifluoromethyl)phenyl)sulfonyl)imino)methyl)carbamimidothioate] | 7.06 | 56% | 6.90 |  |
| N/C(=N\C(=N\S(=O)(=O)c1ccc(C(F)(F)F)cc1)N1CCC(c2ccccc2)C(c2ccc(Cl)cc2)=N1)c1ccc(F)cc1 (centres unmarked) [Compound 10u, (Z)—N—((Z)-amino (4-fluorophenyl)methylene)-3-(4-chlorophenyl)-4-phenyl-N′-((4-(trifluoromethyl)phenyl)sulfonyl)-5,6-dihydropyridazine-1 (4H)-carboximidamide] | 7.56 |  | 6.97 |  |
| CC(C)C(N/C(=N/S(=O)(=O)c1ccc(Cl)cc1)N1CCC(c2ccccc2)C(c2ccc(Cl)cc2)=N1)C(N)=O (single isomer, unassigned) [Compound 30b, (Z)-2-(3-(4-chlorophenyl)-N′-((4-chlorophenyl)sulfonyl)-4-phenyl-1,4,5,6-tetrahydropyridazine-1-carboximidamido)-3-methylbutanamide] | 7.74 |  | 7.41 |  |
| COC(=O)C(N/C(=N/S(=O)(=O)c1ccc(C(F)(F)F)cc1)N1CCC(c2ccccc2)C(c2ccc(Cl)cc2)=N1)C(C)C (single isomer, unassigned) [Compound 34b] | 8.57 |  | 7.77 |  |
| O=S(=O)(/N=C(/N=C1\CCCCN1)N1CCC(c2ccccc2)C(c2ccc(Cl)cc2)=N1)c1ccc2ccccc2c1 (centres unmarked) [Compound 15, (Z)-3-(4-chlorophenyl)-N′-(naphthalen-2-ylsulfonyl)-4-phenyl-N—((E)-piperidin-2-ylidene)-5,6-dihydropyridazine-1 (4H)-carboximidamide] | 7.47 |  | 6.54 |  |
| N/C(=N\C(=N\S(=O)(=O)c1ccc(C(F)(F)F)cc1)N1CCC(c2ccccc2)C(c2ccc(Cl)cc2)=N1)c1ccccn1 (centres unmarked) [Compound 10v, (Z)—N—((Z)-amino (pyridin-2-yl)methylene)-3-(4-chlorophenyl)-4-phenyl-N′-((4-(trifluoromethyl)phenyl)sulfonyl)-5,6-dihydropyridazine-1 (4H)-carboximidamide] | 8.15 |  | 7.59 |  |
| C/C(N)=N\C(=N\S(=O)(=O)c1ccc(C(F)(F)F)cc1)N1CCC(c2ccccc2)C(c2ccc(Cl)cc2)=N1 (centres unmarked) [drawing 16] |  |  |  | % Response (Inducible NOS) (iNOS): 64% |
